From US6890889B1, “Mesotrione formulations” (priority 2000, dated 2005)

Tested on: weed
Experiment: Experiments varying water quality and application volumes
Type: in vivo
Settings: applied at recommended rates with these adjuvant systems
Source text: Mesotrione, (2-[4-methylsulfonyl-2-nitrobenzoyl]-1,3-cyclohexane dione), is a new broadleaf weed herbicide being developed for post emergence and preemergence use in corn. Adjuvants are highly preferred in order to optimise its post emergence activity. Glasshouse and field experiments have been conducted to evaluate weed and crop response to mesotrione applied post emergence with several adjuvant systems. Rates of mesotrione ranged from 50 to 140 g active ingredient (ai) per […]. Adjuvant systems tested include; • (i) no adjuvant (control), • (ii) crop oil concentrate (COC), • (iii) non-ionic surfactant (NIS), and • (iv) methylated seed oil (MSO), each with and without urea ammonium nitrate (UAN and ammonium sulphate (AMS) fertilizers.
The use of methylated seed oil with mesotrione increases the potential for crop injury.

CS(=O)(=O)c1ccc(C(=O)C2C(=O)CCCC2=O)c([N+](=O)[O-])c1 [mesotrione, 2-[4-methylsulfonyl-2-nitrobenzoyl]-1,3-cyclohexane dione]
impact of varying water quality and application volumes on activity: little or no impact
